How the values were obtained:
5-HT1A = tested on: 5-HT1A; design: method as in PMID 14741267; conditions: cited from earlier work
r5-HT1B = target: r5-HT1B; design: method as in PMID 19118950, PMID 20399562; conditions: cited from earlier work; for Ki: radioligand binding, read-out: Affinity (Ki (nM)) r5-HT1B
h5-HT1D = conditions: cited from earlier work; for Ki: radioligand binding, read-out: Affinity (Ki (nM)) h5-HT1D; for Affinity ratio versus 5-HT7 receptors (Ki h5-HT1D/Ki 5-HT7): number-fold higher for 5-HT7 than for the tested receptor
h5-HT5A = target: h5-HT5A; design: method as in PMID 19118950, PMID 20399562; conditions: cited from earlier work; for Ki: radioligand binding, read-out: Affinity (Ki (nM)) h5-HT5A
h5-HT2C = target: h5-HT2C; design: method as in PMID 19118950, PMID 20399562; conditions: radioligand binding; read-out: Affinity (Ki (nM)) h5-HT2C; cited from earlier work
h5-HT2A = target: h5-HT2A; design: method as in PMID 19118950, PMID 20399562; conditions: cited from earlier work; for Ki: radioligand binding, read-out: Affinity (Ki (nM)) h5-HT2A
h5-HT transporter (SERT) = target: h5-HT transporter (SERT); design: method as in PMID 19118950, PMID 20399562; conditions: radioligand binding; read-out: Affinity (Ki (nM)) h5-HT transporter (SERT); cited from earlier work
h5-HT7 [1] = target: h5-HT7; design: method as in PMID 19118950, PMID 20399562; conditions: radioligand binding; read-out: Affinity (Ki (nM)) h5-HT7; cited from earlier work
h5-HT6 = target: h5-HT6; design: method as in PMID 19118950, PMID 20399562; conditions: radioligand binding; read-out: Affinity (Ki (nM)) h5-HT6; cited from earlier work
[2] = tested on: 5-HT7 receptor knockout mice; experiment: Rectal (body) temperature in 5-HT7 receptor knockout mice; type: in vivo; conditions: for Effect on body temperature: 30 min after administration
Description: (§1) Formaldehyde (37 wt.% solution) was purchased from Panreac (Spain) and dissolved in physiological saline. Drugs used for treatments were AS-19 (dimethyl-[5-(1,3,5-tri-methyl-1H-pyrazol-4-yl)-1,2,3,4-tetrahydro-naphthalen-2(S)-yl]-amine), E-55888 (dimethyl-{2-[3-(1,3,5-trimethyl-1H-pyrazol-4-yl)-phenyl]-ethyl}-amine dihydrochloride), and E-57431 (2-(2-(dimethylamino)ethyl)-4-(1,3,5-tri-methyl-1H-pyrazol-4-yl)phenol). AS-19 is a potent selective 5-HT7 receptor agonist commercially available from Tocris Bioscience (UK), whereas E-55888 and E-57431 are 5-HT7 receptor agonists developed by ESTEVE Laboratories (Barcelona, Spain). All three 5-HT7 receptor agonists were synthesized for the purpose of this study at ESTEVE, dissolved in aqueous solutions containing 0.5% (hydroxypropyl) methyl cellulose (Sigma-Aldrich, Spain) and administered in a volume of 5 ml/kg through the subcutaneous (s.c.) route. Doses of drugs (referred to their salt forms) and time of evaluation were selected based on previous studies and on pilot experiments in models used in this study. All treatments were performed under blind conditions in independent groups of mice and behavioral evaluation was done 30 min after drug administration.
(§2) The body temperature was recorded using a precision thermometer (YSI 4600) equipped with a flexible probe (YSI 402). This probe was lubricated with vaseline and inserted 2 cm into the rectum. Temperature recordings were made 20 s following insertion of the probe, as previously described.

wild-type mice [3] = experiment: Rectal (body) temperature in wild-type mice; type: in vivo; conditions: for Effect on body temperature: 30 min after administration
Description: as §1, §2

h5-HT1A = conditions: cited from earlier work; for Affinity ratio versus 5-HT7 receptors (Ki h5-HT1A/Ki 5-HT7): number-fold higher for 5-HT7 than for the tested receptor; for Ki: radioligand binding, read-out: Affinity (Ki (nM)) h5-HT1A
h5-HT2B = target: h5-HT2B; design: method as in PMID 19118950, PMID 20399562; conditions: radioligand binding; read-out: Affinity (Ki (nM)) h5-HT2B; cited from earlier work
h5-HT4e = target: h5-HT4e; design: method as in PMID 19118950, PMID 20399562; conditions: radioligand binding; read-out: Affinity (Ki (nM)) h5-HT4e; cited from earlier work
Other receptors = target: Other receptors; design: method as in PMID 19118950, PMID 20399562; conditions: panel of other receptors assayed; read-out: Affinity (Ki (nM)) Other receptors; cited from earlier work
wild-type mice [4] = experiment: Formalin test in wild-type mice; type: in vivo; conditions: 15-30 min after formalin, versus vehicle
Description: as §1
(§3) Formalin (20 μL of a 2.5% formalin solution; 0.92% of formaldehyde) was injected into the dorsal surface on the right hind paw, as previously described. […] Mice were placed on a paper surface surrounded by a plexiglas cylinder (20 × 25 cm) and the time spent licking and biting the injected paw was measured using a chronometer. A time course of the licking/biting behaviors was monitored during 45 minutes after formalin injection to evaluate possible differences between genotypes. Drug effects were quantified at 0–5 min (phase I) and 15–30 min (phase II) after formalin injection, two periods of time in which the formalin-induced licking and biting time was high enough to test antinociceptive effects of drugs.

[5] = tested on: 5-HT7 receptor knockout mice; experiment: Formalin test in 5-HT7 receptor knockout mice; type: in vivo; conditions: 15-30 min after formalin, versus vehicle
Description: as §1, §3

h5-HT7 [6] = tested on: h5-HT7; design: method as in PMID 19118950, PMID 20399562; conditions: HEK-293F/h5-HT7 cells, cited from earlier work; for EC50: read-out: EC50, cAMP formation; for Maximal effect (E max), cAMP formation: relative to that of 5-HT
h5-HT3 = target: h5-HT3; design: method as in PMID 19118950, PMID 20399562; conditions: radioligand binding; read-out: Affinity (Ki (nM)) h5-HT3; cited from earlier work
rats = tested on: rats; design: method as in PMID 16098671; conditions: cited from earlier work
gp5-HT4 = target: gp5-HT4; design: method as in PMID 19118950, PMID 20399562; conditions: radioligand binding; read-out: Affinity (Ki (nM)) gp5-HT4; cited from earlier work
[7] = tested on: 5-HT1B, 5-HT2B, 5-HT2C, and 5-HT5A; design: method as in PMID 20600619; conditions: cited from earlier work
dopamine D2 receptor = tested on: dopamine D2 receptor; design: method as in PMID 17649988; conditions: cited from earlier work
[8] = number-fold higher for 5-HT7 than for the tested receptor

SMILES | Ki (r5-HT1B) | Ki (h5-HT1D) | Ki (h5-HT5A) | Ki (h5-HT2C) | Ki (h5-HT2A) | Ki (h5-HT transporter (SERT)) | Ki (h5-HT7 [1]) | Ki (h5-HT6) | Effect on body temperature ([2]; 20 mg/kg s.c.) | Effect on body temperature (wild-type mice [3]; 20 mg/kg s.c.) | Ki (h5-HT1A) | Ki (h5-HT2B) | Ki (Other receptors) | EC50 (h5-HT7 [6]) | Maximal effect (E max), cAMP formation (h5-HT7 [6]) | Ki (h5-HT3) | other results
CN(C)CCSc1cccc(-c2ccccc2)n1 [MSD-5a] |  |  |  |  |  |  |  |  |  |  |  |  |  |  |  |  | Affinity for 5-HT7 higher than for 5-HT1A (5-HT1A): 28.6 fold
Cc1nn(C)c(C)c1-c1cccc(CCN(C)C)c1.Cl.Cl [E-55888, dimethyl-{2-[3-(1,3,5-trimethyl-1H-pyrazol-4-yl)-phenyl]-ethyl}-amine dihydrochloride] | > 1000 nM | > 1000 nM | > 1000 nM | > 1000 nM | > 1000 nM | > 1000 nM | 2.5 nM | > 1000 nM | did not significantly change | did not significantly change | 700 nM | > 1000 nM | > 1000 nM | 16 ± 1 nM | 99 ± 1% | > 1000 nM | Affinity for 5-HT7 higher than for 5-HT1A (h5-HT1A): 280 fold; Affinity ratio versus 5-HT7 receptors (Ki h5-HT1A/Ki 5-HT7) (h5-HT1A): 280 x; Ki (h5-HT4e): > 1000 nM; Formalin phase II licking/biting time (wild-type mice [4]; 20 mg/kg s.c.): significant reduction; Formalin phase II licking/biting time significantly reduced ([5]; 20 mg/kg s.c.): not
CC1CCN(CC[C@H]2CCCN2S(=O)(=O)c2cccc(O)c2)CC1 [SB-269970, (R)-3-(2-(2-(4-methylpiperidin-1-yl)-ethyl)pyrrolidine-1-sulfonyl)phenol] |  |  |  |  |  |  |  |  |  |  |  |  |  |  |  |  | Effect on 5-carboxamidotryptamine-induced increase of phase II formalin nociceptive behavior (rats): significantly reversed
Cc1nn(C)c(C)c1-c1cccc2c1CC[C@H](N(C)C)C2 [AS-19, dimethyl-[5-(1,3,5-tri-methyl-1H-pyrazol-4-yl)-1,2,3,4-tetrahydro-naphthalen-2(S)-yl]-amine, reference compound] | 490 nM | 6.6 nM | 98.5 nM | > 1000 nM | > 1000 nM | > 1000 nM | 0.6 nM | > 1000 nM | significantly reduced | significantly reduced | 89.7 nM | > 1000 nM | > 1000 nM | 9 ± 1 nM | 77% | > 1000 nM | Affinity ratio versus 5-HT7 receptors (Ki r5-HT1B/Ki 5-HT7) (r5-HT1B; [8]): 816.6 x; Affinity for 5-HT7 higher than for 5-HT1D (h5-HT1D): 11 fold; Affinity ratio versus 5-HT7 receptors (Ki h5-HT1D/Ki 5-HT7) (h5-HT1D): 11 x; Affinity ratio versus 5-HT7 receptors (Ki h5-HT5A/Ki 5-HT7) (h5-HT5A; [8]): 164.2 x; Effect on body temperature ([2]; 10 mg/kg s.c.): did not significantly change; Body temperature reduction ([2]; 20 mg/kg s.c.): 2.4 °C; Effect on body temperature (wild-type mice [3]; 10 mg/kg s.c.): did not significantly change; Body temperature reduction (wild-type mice [3]; 20 mg/kg s.c.): 3.8 °C; Ki (gp5-HT4): > 1000 nM; Affinity ratio versus 5-HT7 receptors (Ki h5-HT1A/Ki 5-HT7) (h5-HT1A): 149.5 x; Formalin phase II licking/biting time (wild-type mice [4]; 10 mg/kg s.c.): significant reduction; Formalin phase II licking/biting time significantly reduced ([5]; 10 mg/kg s.c.): not
N#Cc1ccc(CNC(=O)CCCCCN2CCN(c3ccccc3-c3ccccc3)CC2)cc1 [LP-211] |  |  |  |  |  |  |  |  |  |  |  |  |  |  |  |  | Affinity for 5-HT7 higher than for 5-HT1B, 5-HT2B, 5-HT2C, and 5-HT5A [7]: 5-14 fold; Affinity for 5-HT7 higher than for dopamine D2 receptor (dopamine D2 receptor): 33 fold
NCCc1c[nH]c2ccc(C(N)=O)cc12 [5-carboxamidotryptamine] |  |  |  |  |  |  |  |  |  |  |  |  |  |  |  |  | Phase II formalin-induced nociceptive behavior (rats; intraplantar or spinal administration): increased
Cc1nn(C)c(C)c1-c1ccc(O)c(CCN(C)C)c1 [E-57431, 2-(2-(dimethylamino)ethyl)-4-(1,3,5-tri-methyl-1H-pyrazol-4-yl)phenol] | > 1000 nM | 53 nM | > 1000 nM | > 1000 nM | 560 nM | > 1000 nM | 0.47 nM | > 1000 nM | significantly reduced | significantly reduced | > 1000 nM | > 1000 nM | > 1000 nM | 21.5 ± 1 nM | 94.5 ± 1% | > 1000 nM | Affinity for 5-HT7 higher than for 5-HT1D (h5-HT1D): 112.7 fold; Affinity ratio versus 5-HT7 receptors (Ki h5-HT1D/Ki 5-HT7) (h5-HT1D): 112.7 x; Affinity ratio versus 5-HT7 receptors (Ki h5-HT2A/Ki 5-HT7) (h5-HT2A; [8]): 1191.5 x; Effect on body temperature ([2]; 10 mg/kg s.c.): did not significantly change; Body temperature reduction ([2]; 20 mg/kg s.c.): 2.3 °C; Effect on body temperature (wild-type mice [3]; 10 mg/kg s.c.): did not significantly change; Body temperature reduction (wild-type mice [3]; 20 mg/kg s.c.): 1.1 °C; Ki (gp5-HT4): > 1000 nM; Ki (h5-HT4e): > 1000 nM; Formalin phase II licking/biting time (wild-type mice [4]; 10 mg/kg s.c.): significant reduction; Formalin phase II licking/biting time significantly reduced ([5]; 10 mg/kg s.c.): not

Source: PMC3385710, “Assessment of 5-HT7 Receptor Agonists Selectivity Using Nociceptive and Thermoregulation Tests in Knockout versus Wild-Type Mice” (Advances in Pharmacological Sciences, 2012)
